Reference: patent US20260062422A1 (Halda Therapeutics OpCo, Inc., priority 2022, published 2026)

Experiments:
[1] = tested on: T-Rex 293 cell line SC cells lacking increased expression of progesterone receptor isoform B protein; assay: Cellular growth inhibition, T-Rex 293 SC cells without doxycycline, Example 47; format: cell-based; conditions: T-Rex 293 SC cells not exposed to doxycycline, 72 hours, CellTiter-Glo 2.0; Table 15 (Example 47)
Protocol: (§1) The following types of cells were prepared for this experiment: (i) a T-Rex 293 cell line having increased expression of progesterone receptor isoform B protein due to exposure to doxycycline and (ii) a T-Rex 293 cell line lacking increased expression of progesterone receptor isoform B protein. Ability of the test compounds to inhibit proliferation of the foregoing cell types was evaluated according to the procedures set forth below.
(§2) The doxycycline-inducible progesterone receptor isoform B protein expressing cell line was established using the following protocol: T-Rex 293 cells were purchased from Invitrogen (Cat #R71007) and transfected using Lipofectamine 2000 with the wild-type progesterone receptor B protein sequence cloned into the pcDNA4/TO vector. Transfected cells were selected using 400 μg/mL Zeocin (Invitrogen Cat #R25001). Following selection, single clones were raised and maintained in Dulbecco's Modified Eagle Medium (DMEM) supplemented with 10% w/w Tetracycline-free fetal bovine serum (FBS) and 250 μg/mL Zeocin. Clones were analyzed for expression of progesterone receptor isoform B protein in the presence and absence of 10 ng/mL doxycycline (Sigma Cat #D9891), and a single doxycycline-inducible clone (hereinafter “SC”) was selected for use in downstream assays.
(§3) The SC cells were seeded on poly-D-lysine coated, black clear-bottom 384-well plates at 2500/well, in 25 μL Phenol Red Free Dulbecco's Modified Eagle Medium (DMEM) supplemented with 10% w/w charcoal-dextran treated fetal bovine serum (FBS) and 1% w/w pen-strep, with or without 10 ng/mL doxycycline. Pen-Strep is a commercially available mixture of penicillin G and streptomycin, which is used in mammalian cell culture media to prevent bacterial contamination. Phenol Red Free Dulbecco's Modified Eagle Medium (DMEM) supplemented with 10% w/w charcoal-dextran treated fetal bovine serum (FBS) and 1% w/w pen-strep, with or without 10 ng/mL doxycycline is herein referred to as Treatment Medium. Following seeding of cells in the plates, the plates were spun at 300×g for 30 seconds, then equilibrated to room temperature for 30 minutes, and then deposited in a humidified tissue culture incubator maintained at 37° C. with 5% CO2.
(§4) At 24 hours after seeding of the cells, dilutions of test compound were prepared in DMSO and dissolved in Treatment Medium, to achieve a final DMSO concentration of 0.5% w/w, thereby providing the Test Compound Solution. A 25 μL aliquot of the Test Compound Solution was added to cells in the well plates. An equal volume of a solution containing DMSO and Treatment Medium was used as a negative control. Following treatment of cells with Test Compound Solution or said equal volume of a solution containing DMSO and Treatment Medium, the plates were spun at 300×g for 30 seconds, and then left in an incubator for 72 hours.
(§5) At the end of the treatment duration, cell viability was quantified with CellTiter-Glo 2.0 reagent (Promega Cat #G9243). For this purpose, plates were equilibrated to room temperature for 30 minutes, and then 25 μL of CellTiter-Glo 2.0 reagent was added to cells in the plate wells. Plates were then agitated on a shaker for two minutes at 500 rpm and subsequently incubated at room temperature for 10 minutes. Following incubation, the plates were spun at 3000×g for 30 seconds, then sealed with an optical adhesive cover, and luminescence readings were measured with an EnVision Plate Reader (Perkin Elmer).
(§6) Data was normalized using zero luminescence for baseline. A four-parameter non-linear regression curve fit was applied to dose-response data in GraphPad Prism data analysis software to determine the half-maximal growth inhibitory concentration (GI50) for each test compound.

[2] = Cellular growth inhibition, T-Rex 293 SC cells with doxycycline (progesterone receptor isoform B induced), Example 45; format: cell-based; conditions: progesterone receptor isoform B induced with 10 ng/mL doxycycline, 72 hours, CellTiter-Glo 2.0, Table 11
Protocol: as §1, §2, §3, §4, §5, §6

androgen receptor = biological target: T1, androgen receptor (Homo sapiens, UniProt P10275); assay: Assay for binding affinity to androgen receptor ([3H]methyltrienolone radioligand, cell cytosol); conditions: 1 nM [3H]methyltrienolone, 24 hours at 4° C., Table 5
T1 sequence (P10275 1-920 T878A): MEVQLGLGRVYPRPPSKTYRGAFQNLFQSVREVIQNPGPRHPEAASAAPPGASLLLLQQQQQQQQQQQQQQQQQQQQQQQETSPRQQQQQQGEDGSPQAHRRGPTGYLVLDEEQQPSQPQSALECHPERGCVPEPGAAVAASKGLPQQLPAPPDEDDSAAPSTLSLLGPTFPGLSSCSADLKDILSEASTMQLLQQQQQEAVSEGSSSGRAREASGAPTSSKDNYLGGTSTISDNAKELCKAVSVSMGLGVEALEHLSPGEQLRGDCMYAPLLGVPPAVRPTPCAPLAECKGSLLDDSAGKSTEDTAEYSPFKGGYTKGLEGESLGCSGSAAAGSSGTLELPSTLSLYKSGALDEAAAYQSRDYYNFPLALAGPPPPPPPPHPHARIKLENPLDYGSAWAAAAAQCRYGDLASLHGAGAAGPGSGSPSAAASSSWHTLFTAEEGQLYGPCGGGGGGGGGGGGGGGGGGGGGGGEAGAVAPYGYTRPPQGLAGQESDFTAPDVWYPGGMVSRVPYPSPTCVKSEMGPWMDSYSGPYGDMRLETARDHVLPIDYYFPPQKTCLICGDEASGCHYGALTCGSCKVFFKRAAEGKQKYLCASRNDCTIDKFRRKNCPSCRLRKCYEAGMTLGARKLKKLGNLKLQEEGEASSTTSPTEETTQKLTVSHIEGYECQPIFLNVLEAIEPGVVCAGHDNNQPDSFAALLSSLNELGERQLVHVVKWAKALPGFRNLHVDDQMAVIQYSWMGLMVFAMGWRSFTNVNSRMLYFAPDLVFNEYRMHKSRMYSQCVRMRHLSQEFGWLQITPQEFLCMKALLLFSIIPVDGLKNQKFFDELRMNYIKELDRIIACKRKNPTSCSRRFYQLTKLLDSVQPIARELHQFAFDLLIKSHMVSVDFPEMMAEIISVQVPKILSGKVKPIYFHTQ
Summary of the method: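 Competition binding in cell cytosol ([…]) with 1 nM [3H]methyltrienolone, 24 hours at 4° C, in pH 7.4 Hepes-Tris buffer with 5 μM triamcinolone acetonide; nonspecific binding defined by 1 μM testosterone. Filtration and scintillation counting; values reported as % inhibition of specific binding.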

Kd (androgen receptor) [nM] | SMILES | GI50 [1] [nM] | GI50 [2] [nM]
< 50 | Cc1sc2c(c1C)C(c1ccc(Cl)cc1)=N[C@@H](CC(=O)NCCOC1CCN(c3ncc(C(=O)N[C@H]4C(C)(C)[C@H](Oc5ccc(C#N)c(Cl)c5)C4(C)C)cn3)CC1)c1nnc(C)n1-2 [Compound I-6] | < 500 | < 500
< 50 | Cc1sc2c(c1C)C(c1ccc(Cl)cc1)=N[C@@H](CC(=O)NCCOCCOCCOCC1CCN(c3ncc(C(=O)N[C@H]4C(C)(C)[C@H](Oc5ccc(C#N)c(Cl)c5)C4(C)C)cn3)CC1)c1nnc(C)n1-2 [Compound I-17] | > 3000 | –
< 50 | Cc1sc2c(c1C)C(c1ccc(Cl)cc1)=N[C@H](CC(=O)NCCOCCOCCOCCOCCN(C)c1ncc(C(=O)N[C@H]3C(C)(C)[C@H](Oc4ccc(C#N)c(Cl)c4)C3(C)C)cn1)c1nnc(C)n1-2 [Compound I-19] | 1500 to 3000 | –
< 50 | CCNC(=O)C[C@@H]1N=C(c2cccc(OCCOCCOCCOC3CCN(c4ncc(C(=O)N[C@H]5C(C)(C)[C@H](Oc6ccc(C#N)c(Cl)c6)C5(C)C)cn4)CC3)c2)c2c(sc(C)c2C)-n2c(C)nnc21 [Compound I-48, N-((1r,3r)-3-(3-chloro-4-cyanophenoxy)-2,2,4,4-tetramethylcyclobutyl)-2-(4-(2-(2-(2-(3-((S)-6-(2-(ethylamino)-2-oxoethyl)-2,3,9-trimethyl-6H-thieno[3,2-f][1,2,4]triazolo[4,3-a][1,4]diazepin-4-yl)phenoxy)ethoxy)ethoxy)ethoxy)piperidin-1-yl)pyrimidine-5-carboxamide] | > 3000 | –

More lines, now with the values behind:

SMILES | Kd (androgen receptor) [nM] | GI50 [1] [nM] | GI50 [2] [nM]
Cc1sc2c(c1C)C(c1ccc(Cl)cc1)=N[C@@H](CC(=O)NCCOCCOCCOCCOCCN(C)c1ncc(C(=O)N[C@H]3C(C)(C)[C@H](Oc4ccc(C#N)c(Cl)c4)C3(C)C)cn1)c1nnc(C)n1-2 [Compound I-3, N-((1r,3r)-3-(3-chloro-4-cyanophenoxy)-2,2,4,4-tetramethylcyclobutyl)-2-((1-((S)-4-(4-chlorophenyl)-2,3,9-trimethyl-6H-thieno[3,2-f][1,2,4]triazolo[4,3-a][1,4]diazepin-6-yl)-2-oxo-6,9,12,15-tetraoxa-3-azaheptadecan-17-yl)(methyl)amino)pyrimidine-5-carboxamide] | – | 1500 to 3000 | < 500
Cc1sc2c(c1C)C(c1ccc(Cl)cc1)=N[C@@H](CC(=O)NCCOCCOCCOCCOCCOCCOCCN(C)c1ncc(C(=O)N[C@H]3C(C)(C)[C@H](Oc4ccc(C#N)c(Cl)c4)C3(C)C)cn1)c1nnc(C)n1-2 [Compound I-4] | < 50 | 1500 to 3000 | < 500
Cc1sc2c(c1C)C(c1ccc(Cl)cc1)=N[C@@H](CC(=O)NCCOCCOCCOCCOCCOC1CCN(c3ncc(C(=O)N[C@H]4C(C)(C)[C@H](Oc5ccc(C#N)c(Cl)c5)C4(C)C)cn3)CC1)c1nnc(C)n1-2 [Compound I-8] | < 50 | 500 to 1500 | < 500
Cc1sc2c(c1C)C(c1ccc(Cl)cc1)=N[C@@H](CC(=O)NCCOCCOCCOCCOC1CCN(c3ncc(C(=O)N[C@H]4C(C)(C)[C@H](Oc5ccc(C#N)c(Cl)c5)C4(C)C)cn3)CC1)c1nnc(C)n1-2 [Compound I-11] | – | < 500 | –
Cc1sc2c(c1C)C(c1ccc(Cl)cc1)=N[C@H](CC(=O)NCCOCCOCCOCCOC1CCN(c3ncc(C(=O)N[C@H]4C(C)(C)[C@H](Oc5ccc(C#N)c(Cl)c5)C4(C)C)cn3)CC1)c1nnc(C)n1-2 [Compound I-13] | < 50 | 1500 to 3000 | –
Cc1sc2c(c1C)C(c1ccc(Cl)cc1)=N[C@H](CC(=O)NCCOCCOCCOCCOCCOC1CCN(c3ncc(C(=O)N[C@H]4C(C)(C)[C@H](Oc5ccc(C#N)c(Cl)c5)C4(C)C)cn3)CC1)c1nnc(C)n1-2 [Compound I-14] | – | 1500 to 3000 | 500 to 1500
Cc1sc2c(c1C)C(c1ccc(Cl)cc1)=N[C@@H](CC(=O)NCCCCCOC1CCN(c3ncc(C(=O)N[C@H]4C(C)(C)[C@H](Oc5ccc(C#N)c(Cl)c5)C4(C)C)cn3)CC1)c1nnc(C)n1-2 [Compound I-22, N-((1r,3r)-3-(3-chloro-4-cyanophenoxy)-2,2,4,4-tetramethylcyclobutyl)-2-(4-((5-(2-((S)-4-(4-chlorophenyl)-2,3,9-trimethyl-6H-thieno[3,2-A][1,2,4]triazolo[4,3-a][1,4]diazepin-6-yl)acetamido)pentyl)oxy)piperidin-1-yl)pyrimidine-5-carboxamide] | – | > 3000 | –
Cc1sc2c(c1C)C(c1ccc(OC3CC4(CCN(c5ncc(C(=O)N[C@H]6C(C)(C)[C@H](Oc7ccc(C#N)c(Cl)c7)C6(C)C)cn5)CC4)C3)cc1)=N[C@@H](Cc1ncco1)c1nnc(C)n1-2 [Compound I-49, N-[3-(3-chloro-4-cyano-phenoxy)-2,2,4,4-tetramethyl-cyclobutyl]-2-[2-[4-[(9S)-4,5,13-trimethyl-9-(oxazol-2-ylmethyl)-3-thia-1,8,11,12-tetrazatricyclo[8.3.0.02,6]trideca-2(6),4,7,10,12-pentaen-7-yl]phenoxy]-7-azaspiro[3.5]nonan-7-yl]pyrimidine-5-carboxamide] | – | 500 to 1500 | < 500
